Where a name gives a salt, the structure may show the parent alone. Read-outs that look alike come from different tables or passages of the source.
What was measured:
Water solubility test = type: physicochemical; settings: for Solubility (%): purified water, from amount of water required for dissolution; for Dissolution in the added water (in words): 100 mL purified water added
Experimental: Experiment 2 (Water Solubility Test) Testing Method
Each sample compound was weighed in the amount shown in Table 3, to which purified water was added in 0.05 mL aliquots. The solubility (%) of the compound was determined based on the amount of water required for its dissolution.

[1] = Oral absorbability test on rats and/or mice; type: in vivo; settings: orally administered to mice and/or rats, as in Experiment 3
Text: Experiment 4 (Oral Absorbability Test on Rats and/or Mice)
In a similar manner as in Experiment 3, test compounds of Examples 23, 25, 143, 193, 245, 246, 247, 248 and 249 were orally administered to mice and/or rats to test their oral absorbability.

[2] = system: interleukin-1β production; assay: Inhibitory activity against interleukin-1β production (LPS-stimulated HL-60 cells, ELISA); type: cell-based; settings: Table 1, lipopolysaccharide 10 μg/mL, culturing for 3 days, read-out: IL-1β production inhibiting activity IC50
Experimental: Inhibitory Activity Against Interleukin-1β Production
HL-60 cells were cultured for 4 days until confluence on RPMI 1640 medium with 10% fetal bovine serum (FBS) added thereto. The medium was centrifuged. The supernatant was discarded, and the cells were then suspended at 1×10^6 cells/mL on RPMI 1640 medium with 3% FBS, and lipopolysaccharide was added to give a final concentration of 10 μg/mL. The culture was inoculated at 1 mL/well to a 24-well plate. A sample compound was added at 1 μL/well, followed by culturing for 3 days. Three days later, the amount of interleukin-1β in each culture was determined by ELISA. Each IC50 value was determined by a comparison in yield with a control to which no test sample was added.

Row | Structure (SMILES) | Solubility (%) (Water solubility test) | melting point | other results
1 | CCN(CC)Cc1cc(-c2ccc(C)cc2)nn(CC(C)C)c1=O.Cl [Example 47, 4-diethylaminomethyl-2-isobutyl-6-(4-methylphenyl)-2H-pyridazin-3-one hydrochloride] | >20% | – | –
2 | CSc1ccc(-c2cc(CN3CCN(C)CC3)c(=O)n(CC3CC3)n2)cc1.Cl.Cl [Example 149, 2-cyclopropylmethyl-4-(4-methyl-1-piperazinyl)methyl-6-[4-(methylthio)phenyl]-2H-pyridazin-3-one dihydrochloride] | >10% | 234.6 to 239.2 °C | –
3 | Cc1cc(-c2cc(CN3CCN(C)CC3)c(=O)n(CC=Cc3ccc(Cl)cc3)n2)ccc1F.Cl.Cl [Example 143, 2-(4-chlorocinnamyl)-6-(4-fluoro-3-methylphenyl)-4-(4-methyl-1-piperazinyl)methyl-2H-pyridazin-3-one dihydrochloride] | 10% | 229.7 to 243.3 °C (dec.) | Oral absorbability (FIGS. 2 to 6) [1]: good absorbability
4 | Cc1cc(-c2cc(CN(C)C)c(=O)n(CC(C)C)n2)ccc1F.Cl [Example 89, 4-dimethylaminomethyl-6-(4-fluoro-3-methylphenyl)-2-isobutyl-2H-pyridazin-3-one hydrochloride] | >20% | – | –
5 | COc1ccc(-c2cc(CN3CCNCC3)c(=O)n(CC3CC3)n2)cc1F.Cl.Cl [Example 21, 2-cyclopropylmethyl-6-(3-fluoro-4-methoxyphenyl)-4-(1-piperazinyl)methyl-2H-pyridazin-3-one dihydrochloride] | >20% | – | –
6 | CCOC(=O)Nc1cc(-c2ccc(OC)cc2)nn(C/C=C/c2ccc(Cl)cc2)c1=O [compound 1, reference compound] | <0.001% | – | Dissolution in the added water (in words) (Water solubility test): (insoluble)
7 | Cc1ccc(-c2cc(CN(C)C)c(=O)n(CC(C)C)n2)cc1.Cl [Example 45, 4-dimethylaminomethyl-2-isobutyl-6-(4-methylphenyl)-2H-pyridazin-3-one hydrochloride] | 4% | – | –
8 | CC(C)Cn1nc(-c2ccc(F)c(F)c2)cc(CN(CCO)CCO)c1=O.Cl [Example 108, 4-N,N-bis(2-hydroxyethyl)aminomethyl-6-(3,4-difluorophenyl)-2-isobutyl-2H-pyridazin-3-one hydrochloride] | >20% | – | IC50 [2]: 3.44 µM
9 | CNC(=O)c1cc(-c2ccc(OC)cc2)nn(CC(C)C)c1=O [compound 2, reference compound] | <0.001% | – | Dissolution in the added water (in words) (Water solubility test): (insoluble)
10 | COc1ccc(-c2cc(CN)c(=O)n(CC3CC3)n2)cc1F.Cl [Example 25, 4-aminomethyl-2-cyclopropylmethyl-6-(3-fluoro-4-methoxyphenyl)-2H-pyridazin-3-one hydrochloride] | 0.4% | – | Oral absorbability (FIGS. 2 to 6) [1]: good absorbability
11 | COc1ccc(-c2cc(CN(C)C)c(=O)n(CC3CC3)n2)cc1F.Cl [Example 14, 2-cyclopropylmethyl-4-dimethylaminomethyl-6-(3-fluoro-4-methoxyphenyl)-2H-pyridazin-3-one hydrochloride] | 0.8% | – | IC50 ([2]; Homo sapiens, 72 h): 3.61 µM
12 | COc1ccc(-c2cc(CN)c(=O)n(CC3CCCC3)n2)cc1F.Cl [Example 188, 4-aminomethyl-2-cyclopentylmethyl-6-(3-fluoro-4-methoxyphenyl)-2H-pyridazin-3-one hydrochloride] | 0.08% | – | –
13 | CSc1ccc(-c2cc(CN(C)C)c(=O)n(CC3CC3)n2)cc1.Cl [Example 153, 2-cyclopropylmethyl-4-dimethylaminomethyl-6-[4-(methylthio)phenyl]-2H-pyridazin-3-one hydrochloride] | 0.5% | 230.2 to 232.3 °C | IC50 ([2]; Homo sapiens, 72 h): 0.58 µM
14 | COc1ccc(-c2cc(CN3CCN(CCO)CC3)c(=O)n(CC=Cc3ccc(Cl)cc3)n2)cc1F.Cl.Cl [Example 249, 2-(4-chlorocinnamyl)-6-(3-fluoro-4-methoxyphenyl)-4-[4-(2-hydroxyethyl)-1-piperazinyl]methyl-2H-pyridazin-3-one dihydrochloride] | 0.03% | – | Oral absorbability (FIGS. 2 to 6) [1]: good absorbability
15 | COc1ccc(-c2cc(CCCN)c(=O)n(CC3CC3)n2)cc1F.Cl [Example 217, 4-(3-aminopropyl)-2-cyclopropylmethyl-6-(3-fluoro-4-methoxyphenyl)-2H-pyridazin-3-one hydrochloride] | 10% | – | –
16 | COc1ccc(-c2cc(CN3CCN(Cc4ccccc4)CC3)c(=O)n(CC3CC3)n2)cc1F.Cl.Cl [Example 18, 4-(4-benzyl-1-piperazinyl)methyl-2-cyclopropylmethyl-6-(3-fluoro-4-methoxyphenyl)-2H-pyridazin-3-one dihydrochloride] | 1% | – | –
17 | COc1ccc(-c2cc(CN3CCNCC3)c(=O)n(Cc3ccc(F)cc3)n2)cc1F.Cl.Cl [Example 193, 2-(4-fluorobenzyl)-6-(3-fluoro-4-methoxyphenyl)-4-(1-piperazinyl)methyl-2H-pyridazin-3-one dihydrochloride] | 5% | – | Oral absorbability (FIGS. 2 to 6) [1]: good absorbability

Row | Structure (SMILES) | Solubility (%) (Water solubility test) | melting point | other results
18 | COc1ccc(-c2cc(C(=O)O)c(=O)n(C/C=C/c3ccc(Cl)cc3)n2)cc1 [compound 4, reference compound] | <0.001% | – | Dissolution in the added water (in words) (Water solubility test): (insoluble)
19 | COc1ccc(-c2cc(CCCN3CCNCC3)c(=O)n(CC3CC3)n2)cc1F.Cl.Cl [Example 214, 2-cyclopropylmethyl-6-(3-fluoro-4-methoxyphenyl)-4-[3-(1-piperazinyl)propyl]-2H-pyridazin-3-one dihydrochloride] | 10% | – | –
20 | Cc1ccc(-c2cc(CN(CCO)CCO)c(=O)n(CC(C)C)n2)cc1 [Example 49, 4-N,N-bis(2-hydroxyethyl)aminomethyl-6-(4-methylphenyl)-2-isobutyl-2H-pyridazin-3-one hydrochloride] | – | – | IC50 [2]: 3.53 µM
21 | COc1ccc(-c2cc(CN)c(=O)n(Cc3ccc(Cl)cc3)n2)cc1F.Cl [Example 206, 4-aminomethyl-2-(4-chlorobenzyl)-6-(3-fluoro-4-methoxyphenyl)-2H-pyridazin-3-one hydrochloride] | 0.06% | – | –
22 | COc1ccc(-c2cc(CN3CCN(C)CC3)c(=O)n(Cc3ccc(F)c(F)c3)n2)cc1F.Cl.Cl [Example 245, 2-(3,4-difluorobenzyl)-6-(3-fluoro-4-methoxyphenyl)-4-(4-methyl-1-piperazinyl)methyl-2H-pyridazin-3-one dihydrochloride] | 10% | – | Oral absorbability (FIGS. 2 to 6) [1]: good absorbability
23 | COc1ccc(-c2cc(CN)c(=O)n(Cc3ccc(F)cc3)n2)cc1F.Cl [Example 195, 4-aminomethyl-2-(4-fluorobenzyl)-6-(3-fluoro-4-methoxyphenyl)-2H-pyridazin-3-one hydrochloride] | 0.2% | – | –
24 | COc1ccc(-c2cc(CN(C)C)c(=O)n(Cc3ccc(F)c(F)c3)n2)cc1F.Cl [Example 246, 2-(3,4-difluorobenzyl)-4-dimethylaminomethyl-6-(3-fluoro-4-methoxyphenyl)-2H-pyridazin-3-one hydrochloride] | 2% | – | Oral absorbability (FIGS. 2 to 6) [1]: good absorbability
25 | Cc1cc(-c2cc(CN3CCN(C)CC3)c(=O)n(CCCc3ccc(Cl)cc3)n2)ccc1F.Cl.Cl [Example 247, 2-[3-(4-chlorophenyl)propyl]-6-(4-fluoro-3-methylphenyl)-4-(4-methyl-1-piperazinyl)methyl-2H-pyridazin-3-one dihydrochloride] | 10% | – | Oral absorbability (FIGS. 2 to 6) [1]: good absorbability
26 | COc1ccc(-c2cc(CCCN3CCN(C)CC3)c(=O)n(Cc3ccc(F)cc3)n2)cc1F [Example 239, 2-(4-fluorobenzyl)-6-(3-fluoro-4-methoxyphenyl)-4-[3-(4-methyl-1-piperazinyl)propyl]-2H-pyridazin-3-one] | – | 108 to 109 °C | –
27 | CC(C)Cn1nc(-c2ccc(-c3ccccc3)cc2)cc(CN(C)C)c1=O.Cl | – | 243.9 to 244.1 °C | –
28 | CC(C)Cn1nc(-c2ccc(S(C)(=O)=O)cc2)cc(CN(C)C)c1=O.Cl | – | 221.4 to 223.3 °C | –
29 | COc1ccc(-c2cc(CN3CCN(C)CC3)c(=O)n(CC=Cc3ccc(Cl)cc3)n2)cc1F.Cl.Cl [Example 248, 2-(4-chlorocinnamyl)-6-(3-fluoro-4-methoxyphenyl)-4-(4-methyl-1-piperazinyl)methyl-2H-pyridazin-3-one dihydrochloride] | 0.06% | – | Oral absorbability (FIGS. 2 to 6) [1]: good absorbability
30 | CC(C)Cn1nc(-c2ccccc2)cc(CN(C)C)c1=O.Cl | – | 221.7 to 222.3 °C | –
31 | Cc1cc(-c2cc(CN3CCNCC3)c(=O)n(CC=Cc3ccc(Cl)cc3)n2)ccc1F.Cl.Cl | – | 186.7 to 197 °C (dec.) | –
32 | CC(C)Cn1nc(-c2ccc(-c3ccccc3)cc2)cc(CN2CCN(C)CC2)c1=O.Cl.Cl | – | 262.2 to 263.6 °C | –
33 | CN1CCN(Cc2cc(-c3ccc([S+](C)[O-])cc3)nn(CC3CC3)c2=O)CC1.Cl.Cl (stereo not drawn) | – | 80 °C (dec.) | –
34 | CC(C)Cn1nc(-c2ccc(F)c(F)c2)cc(CN2CCN(C)CC2)c1=O.Cl.Cl | – | 242.5 to 243.4 °C | –

From US7211577B2, “Water-soluble phenylpyridazine derivative and medicine containing the same” (Kowa Co., Ltd., priority 2003, dated 2007)
